According to US10494376B2, “Tetrahydroisoquinoline derived PRMT5-inhibitors” (CTXT PTY LTD, priority 2014, dated 2019):
pIC50: −log10 of the molar value. Where a name gives a salt, the structure may show the parent alone.

Target: Full-length PRMT5 enzyme (NCBI Reference sequence NP_006100.2) co-expressed with His6-MEP50 (Homo sapiens (Human), UniProt O14744)
Experiment: Revised PRMT5 Biochemical Assay
Conditions: 1 μM peptide substrate, 1 μM S-Adenosyl methionine, 4 hours at 37 degree Celsius, Transcreener EPIGEN fluorescence polarisation
Description: Compounds of the invention may be tested for in vitro activity in the following assay: A histone H4 derived peptide is used as substrate (amino acid sequence: […]N H2). Full-length PRMT5 enzyme (NCBI Reference sequence NP_006100.2) was co-expressed with His6-MEP50 in insect cells and purified via Nickel immobilized metal affinity and gel filtration chromatography (“the enzyme”).
The 6 μL reactions are run in Greiner brand black 384-well low volume assay plates. All reactions contained assay buffer (phosphate buffered saline, 0.01% (v/v) Tween-20, 0.01% (w/v) albumin from chicken egg white, 1 mM Dithiothreitol, 1 μM peptide substrate, 1 μM S-Adenosyl methionine, and 15 ng/reaction enzyme, with the enzyme being omitted from negative control reactions. Compounds were added in a volume of 100 nL from dilution series prepared in DMSO, positive and negative control reactions receiving the same volume DMSO without compound. The plates were sealed with adhesive seals and incubated for 4 hours at 37 degree Celsius. Reaction progress was measured using the Transcreener™ EPIGEN methyltransferase assay (BellBrook Labs, Madison, Wis.) as recommended by the manufacturer. To each reaction 2 μL detection mix were added, containing coupling enzymes, fluorescence polarisation tracer, and AMP antibody. Plates were incubated for 90 minutes before being read on a PerkinElmer EnVision™ plate reader in fluorescence polarisation mode. IC50 values were obtained from the raw readings by calculating percent inhibition (%1) for each reaction relative to controls on the same plate (% I=(I−CN)/(CP−CN) where CN/CP are the averages of the negative/positive reactions, respectively), then fitting the %1 data vs. compound concentration [I] to % I=(A+((B−A)/(1+((C/[I])^D)))) where A is the lower asymptote, B is the upper asymptote, C is the IC50 value, and D is the slope.

Sequence of Full-length PRMT5 enzyme (NCBI Reference sequence NP_006100.2) co-expressed with His6-MEP50 (O14744 whole entry): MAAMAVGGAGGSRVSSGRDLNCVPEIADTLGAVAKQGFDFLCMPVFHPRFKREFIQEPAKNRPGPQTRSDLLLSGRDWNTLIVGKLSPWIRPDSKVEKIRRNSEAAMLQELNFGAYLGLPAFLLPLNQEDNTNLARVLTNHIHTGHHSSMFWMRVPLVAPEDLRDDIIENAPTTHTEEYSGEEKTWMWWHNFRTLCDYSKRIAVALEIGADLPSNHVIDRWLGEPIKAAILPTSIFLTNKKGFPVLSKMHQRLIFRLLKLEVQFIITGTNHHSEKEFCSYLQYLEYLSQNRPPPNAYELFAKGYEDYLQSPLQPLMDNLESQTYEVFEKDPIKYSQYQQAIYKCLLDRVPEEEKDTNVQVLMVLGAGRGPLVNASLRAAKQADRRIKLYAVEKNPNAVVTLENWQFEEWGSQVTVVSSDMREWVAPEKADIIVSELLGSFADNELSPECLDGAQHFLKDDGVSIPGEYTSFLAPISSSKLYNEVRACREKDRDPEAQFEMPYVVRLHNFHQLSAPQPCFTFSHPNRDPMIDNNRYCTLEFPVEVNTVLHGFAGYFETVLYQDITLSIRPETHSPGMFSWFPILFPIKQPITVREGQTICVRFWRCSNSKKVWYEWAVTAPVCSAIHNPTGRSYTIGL
Sequence of Full-length PRMT5 enzyme (NCBI Reference sequence NP_006100.2) co-expressed with His6-MEP50 (Q9BQA1 whole entry partner): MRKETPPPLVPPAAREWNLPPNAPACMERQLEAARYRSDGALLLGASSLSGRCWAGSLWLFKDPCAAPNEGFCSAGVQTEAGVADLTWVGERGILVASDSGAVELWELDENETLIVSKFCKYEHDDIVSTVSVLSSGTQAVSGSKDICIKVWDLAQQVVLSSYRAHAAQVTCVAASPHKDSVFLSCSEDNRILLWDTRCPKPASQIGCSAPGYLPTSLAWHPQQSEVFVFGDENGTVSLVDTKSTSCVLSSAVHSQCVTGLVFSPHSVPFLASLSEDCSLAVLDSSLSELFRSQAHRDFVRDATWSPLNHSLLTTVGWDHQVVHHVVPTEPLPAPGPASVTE

Structure (SMILES)	pIC50
O=C(NC[C@@H](O)[C@@H]1Cc2ccccc2CN1)c1ccc(C(=O)N2C3CCC2CC(O)C3)cc1 (stereo partly drawn) [Example 42, N-((R)-2-Hydroxy-2-((S)-1,2,3,4-tetrahydroisoquinolin-3-yl)ethyl)-4-(3-hydroxy-8-azabicyclo[3.2.1]octane-8-carbonyl)benzamide]	6.67
O=C(NC[C@@H](O)[C@@H]1Cc2ccccc2CN1)c1ccc(C(=O)N2CCCC(O)C2)cc1 (stereo partly drawn) [Example 43, N-((R)-2-Hydroxy-2-((S)-1,2,3,4-tetrahydroisoquinolin-3-yl)ethyl)-4-(3-hydroxypiperidine-1-carbonyl)benzamide]	6.01
O=C(NC[C@@H](O)[C@@H]1Cc2ccccc2CN1)c1ccc(C(=O)NC2CCC(F)(F)CC2)cc1 [Example 44, N^1-(4,4-Difluorocyclohexyl)-N^4-((R)-2-hydroxy-2-((S)-1,2,3,4-tetrahydroisoquinolin-3-yl)ethyl)terephthalamide]	5.90
O=C(NC[C@@H](O)[C@@H]1Cc2ccccc2CN1)c1ccc(C(=O)N2CCC(O)CC2)cc1 [Example 45, N-((R)-2-Hydroxy-2-((S)-1,2,3,4-tetrahydroisoquinolin-3-yl)ethyl)-4-(4-hydroxypiperidine-1-carbonyl)benzamide]	6.30
O=C(NC[C@@H](O)[C@@H]1Cc2ccccc2CN1)c1ccc(C(=O)N2CCC(C(F)F)CC2)cc1 [Example 46, 4-(4-(Difluoromethyl)piperidine-1-carbonyl)-N-((R)-2-hydroxy-2-((S)-1,2,3,4-tetrahydroisoquinolin-3-yl)ethyl)benzamide]	6.64
O=C(NC[C@@H](O)[C@@H]1Cc2ccccc2CN1)c1ccc(C(=O)N2CCC(O)C2)cc1 (stereo partly drawn) [Example 47, N-((R)-2-Hydroxy-2-((S)-1,2,3,4-tetrahydroisoquinolin-3-yl)ethyl)-4-(3-hydroxypyrrolidine-1-carbonyl)benzamide]	5.47
O=C(NC[C@@H](O)[C@@H]1Cc2ccccc2CN1)c1ccc(Cl)cc1 [Example 48, 4-Chloro-N—((R)-2-hydroxy-2-((S)-1,2,3,4-tetrahydroisoquinolin-3-yl)ethyl)benzamide]	6.72
O=C(NC[C@H](O)[C@@H]1Cc2ccccc2CN1)c1ccc(C(=O)N2CCOCC2)cc1 [Example 52, N—((S)-2-Hydroxy-2-((S)-1,2,3,4-tetrahydroisoquinolin-3-yl)ethyl)-4-(morpholine-4-carbonyl)benzamide hydrochloride]	5.48
O=C(NC[C@@H](O)[C@H]1Cc2ccccc2CN1)c1ccc(C(=O)N2CCOCC2)cc1 [Example 54, N—((R)-2-Hydroxy-2-((R)-1,2,3,4-tetrahydroisoquinolin-3-yl)ethyl)-4-(morpholine-4-carbonyl)benzamide hydrochloride]	4.09
O=C(NCc1ccccn1)c1ccc(C(=O)NC[C@@H](O)[C@@H]2Cc3ccccc3CN2)cc1 [Example 56, N^1-((R)-2-Hydroxy-2-((S)-1,2,3,4-tetrahydroisoquinolin-3-yl)ethyl)-N^4-(pyridin-2-ylmethly)terephthalamide]	6.42
O=C(NC[C@@H](O)[C@@H]1Cc2ccccc2CN1)c1ccc(OCC(F)(F)F)nc1 [Example 57, N-((R)-2-Hydroxy-2-((S)-1,2,3,4-tetrahydroisoquinolin-3-yl)ethyl)-6-(2,2,2-trifluoroethoxy)nicotinamide]	6.23
O=C(NC[C@@H](O)[C@@H]1Cc2ccccc2CN1)c1ccc(OCC2CC2)nc1 [Example 58, 6-(Cyclopropylmethoxy)-N-((R)-2-hydroxy-2-((S)-1,2,3,4-tetrahydroisoquinolin-3-yl)ethyl)nicotinamide]	6.18
CC(C)Oc1ccc(C(=O)NC[C@@H](O)[C@@H]2Cc3ccccc3CN2)cn1 [Example 59, N-((R)-2-Hydroxy-2-((S)-1,2,3,4-tetrahydroisoquinolin-3-yl)ethyl)-6-isopropoxynicotinamide]	6.23
COC(=O)N1CCC(Oc2cccc(C(=O)NC[C@@H](O)[C@@H]3Cc4ccccc4CN3)c2)CC1 [Example 60, Methyl 4-(3-(((R)-2-hydroxy-2-((S)-1,2,3,4-tetrahydroisoquinolin-3-yl)ethyl)carbamoyl)phenoxy)piperidine-1-carboxylate]	5.48
CC(C)OC(=O)N1CCC(Oc2cc(C(=O)NC[C@@H](O)[C@@H]3Cc4ccccc4CN3)ccn2)CC1 [Example 61, Isopropyl 4-((4-(((R)-2-hydroxy-2-((S)-1,2,3,4-tetrahydroisoquinolin-3-yl)ethyl)carbamoyl)pyridin-2-yl)oxy)piperidine-1-carboxylate]	6.98
CC(C)COC(=O)N1CCC(Oc2cc(C(=O)NC[C@@H](O)[C@@H]3Cc4ccccc4CN3)ccn2)CC1 [Example 62, Isobutyl 4-((4-(((R)-2-hydroxy-2-((S)-1,2,3,4-tetrahydroisoquinolin-3-yl)ethyl)carbamoyl)pyridin-2-yl)oxy)piperidine-1-carboxylate]	6.99
O=C(NC[C@@H](O)[C@@H]1Cc2ccccc2CN1)c1ccnc(OCC(F)(F)F)c1 [Example 63, N-((R)-2-hydroxy-2-((S)-1,2,3,4-tetrahydroisoquinolin-3-yl)ethyl)-2-(2,2,2-trifluoroethoxy)isonicotinamide]	6.61
CC(C)Oc1cc(C(=O)NC[C@@H](O)[C@@H]2Cc3ccccc3CN2)ccn1 [Example 64, N-((R)-2-hydroxy-2-((S)-1,2,3,4-tetrahydroisoquinolin-3-yl)ethyl)-2-isopropoxyisonicotinamide]	6.58
NC(=O)COc1ccccc1C(=O)NC[C@@H](O)[C@@H]1Cc2ccccc2CN1 [Example 65, 2-(2-Amino-2-oxoethoxy)-N-((R)-2-hydroxy-2-((S)-1,2,3,4-tetrahydroisoquinolin-3-yl)ethyl)benzamide]	5.64
CC(=O)N1CCN(C(=O)c2ccc(C(=O)NC[C@@H](O)[C@@H]3Cc4ccccc4CN3)cc2)CC1 [Example 66, 4-(4-Acetylpiperazine-1-carbonyl)-N-((R)-2-hydroxy-2-((S)-1,2,3,4-tetrahydroisoquinolin-3-yl)ethyl)benzamide]	6.48
COC(=O)N1CCN(C(=O)c2ccc(C(=O)NC[C@@H](O)[C@@H]3Cc4ccccc4CN3)cc2)CC1 [Example 67, Methyl 4-(4-(((R)-2-hydroxy-2-((S)-1,2,3,4-tetrahydroisoquinolin-3-yl)ethyl)carbamoyl)benzoyl)piperazine-1-carboxylate]	6.51
CC(=O)N1CCC(Oc2ccccc2C(=O)NC[C@@H](O)[C@@H]2Cc3ccccc3CN2)CC1 [Example 68, 2-((1-Acetylpiperidin-4-yl)oxy)-N-((R)-2-hydroxy-2-((S)-1,2,3,4-tetrahydroisoquinolin-3-yl)ethyl)benzamide]	5.65
CCOc1nc(C(=O)N2C3CCC2COC3)ccc1C(=O)NC[C@@H](O)[C@@H]1Cc2ccccc2CN1 [Example 70, 6-(3-Oxa-8-azabicyclo[3.2.1]octane-8-carbonyl)-2-ethoxy-N-((R)-2-hydroxy-2-((S)-1,2,3,4-tetrahydroisoquinolin-3-yl)ethyl)nicotinamide]	6.92
COc1cc(C(=O)NC[C@@H](O)[C@@H]2Cc3ccccc3CN2)ccn1 [Example 71, N-((R)-2-Hydroxy-2-((S)-1,2,3,4-tetrahydroisoquinolin-3-yl)ethyl)-2-methoxyisonicotinamide dihydrochloride]	6.03
O=C(NC[C@@H](O)[C@@H]1Cc2ccccc2CN1)c1ccc(CC(=O)N2CCCCC2)nc1 [Example 72, N-((R)-2-Hydroxy-2-((S)-1,2,3,4-tetrahydroisoquinolin-3-yl)ethyl)-6-(2-oxo-2-(piperidin-1-yl)ethyl)nicotinamide dihydrochloride]	6.23
O=C(NC[C@@H](O)[C@@H]1Cc2ccccc2CN1)c1ccnc(C2CCOCC2)c1 [Example 73, N-((R)-2-Hydroxy-2-((S)-1,2,3,4-tetrahydroisoquinolin-3-yl)ethyl)-2-(tetrahydro-2H-pyran-4-yl)isonicotinamide dihydrochloride]	5.64
O=C(NC[C@@H](O)[C@@H]1Cc2ccccc2CN1)c1cc(OC2CCOCC2)ncc1Cl [Example 75, 5-Chloro-N-((R)-2-hydroxy-2-((S)-1,2,3,4-tetrahydroisoquinolin-3-yl)ethyl)-2-((tetrahydro-2H-pyran-4-yl)oxy)isonicotinamide dihydrochloride]	5.92
COC(=O)N1CCC(Oc2cc(C(=O)NC[C@@H](O)[C@@H]3Cc4ccccc4CN3)ncn2)CC1 [Example 76, Methyl 4-((6-(((R)-2-hydroxy-2-((S)-1,2,3,4-tetrahydroisoquinolin-3-yl)ethyl)carbamoyl)pyrimidin-4-yl)oxy)piperidine-1-carboxylate dihydrochloride]	6.58
O=C(NC[C@@H](O)[C@@H]1Cc2ccccc2CN1)c1ccncc1 [Example 77, N-((R)-2-Hydroxy-2-((S)-1,2,3,4-tetrahydroisoquinolin-3-yl)ethyl)isonicotinamide dihydrochloride]	5.06
